In US8916602B2, “Fusarisetin compounds, and use thereof” (Korea Research Institute of Bioscience and Biotechnology, priority 2010, dated 2014):
Converted amounts (≈) assume the structure as drawn.

Columns and labels:
Assay type in all cases: cell-based
[1] = system: mouse fibroblast cell line (3Y1); assay: Inhibition of cell proliferation (WST-8 cell survival), 3Y1; conditions: 3Y1 cell line, 48 hours culture with compound, WST-8, OD450
Procedure: (§1) Following experiment was performed to investigate the inhibitory activity of the compounds 1 and 2 of the present invention on the proliferation of cancer cells.
(§2) Particularly, human breast cancer cell line (MDA-MB-231, 5.0×10^3 cells per well), mouse fibroblast cell line (3Y1, 5.0×10^3 cells per well), and human liver cancer cell line (Hep3B, 5.0×10^3 cells per well) were cultured respectively in DMEM (Dulbecco's modification of Eagles medium, supplemented with 10% FBS). And human chronic myeloid leukemia cell line (K562, 3.0×10^4 cells per well) and human promyelocytic leukemia cell line (HL-60, 1.0×10^5 cells per well) were cultured respectively in RPMI 1640 (Roswell Park Memorial Institute 1640 medium, supplemented with 10% FBS). Each cell line cultured above was treated with different concentrations of the compound 1 and compound 2 (100 μg/ml, 30 μg/ml, 10 μg/ml, 3 μg/ml, and 1 μg/ml), followed by culture in a 5% CO2 incubator for 48 hours at 37° C. WST-8 reagent (2-(2-methoxy-4-nitrophenyl)-3-(4-nitrophenyl)-5-(2,4-disulfophenyl)-2H-tetrazolium, monosodium salt) producing high sensitive water soluble formazan was added thereto, followed by further culture for 24 hours. OD450 was measured to calculate cell survival rate.

[2] = system: human breast cancer cell line (MDA-MB-231); assay: Inhibition of cancer cell proliferation (WST-8 cell survival), MDA-MB-231; conditions: MDA-MB-231 cell line, 48 hours culture with compound, WST-8, OD450
Procedure: as §1, §2

[3] = system: human chronic myeloid leukemia cell line (K562); assay: Inhibition of cancer cell proliferation (WST-8 cell survival), K562; conditions: 48 hours culture with compound, WST-8, OD450
Procedure: as §1, §2

[4] = system: human promyelocytic leukemia cell line (HL-60); assay: Inhibition of cancer cell proliferation (WST-8 cell survival), HL-60; conditions: HL-60 cell line, 48 hours culture with compound, WST-8, OD450
Procedure: as §1, §2

[5] = system: human breast cancer cells (MDA-MB-231 cells); assay: Inhibition of cancer cell metastasis, trans-well chamber (Matrigel Invasion Chamber); conditions: migration induced by 10% FBS, 24 hours, tested at 30, 10 and 3 μg/ml
Procedure: Trans-well chamber (BioCoat™ Matrigel™ Invasion Chamber, pore size 8 μm, BD Biosciences, Bedford, Mass.) was used for the investigation of inhibitory activity of the compounds of the present invention on cancer cell metastasis. Particularly, human breast cancer cells (MDA-MB-231 cells) were distributed on the upper part of the chamber at the density of 1.0×10^5 cells per well. DMEM (Dulbecco's modification of Eagles medium, serum-free) was used for the culture. 30 minutes later, the compounds 1 and 2 were added to the upper part of the chamber at different concentrations of 30 μg/ml, 10 μg/ml, and 3 μg/ml, respectively. 30 minutes later, 10% FBS was added to the bottom of the chamber, followed by culture in a 5% CO2 incubator at 37° C. for 24 hours. 24 hours later, the cells migrated through porous membrane which had been induced by 10% FBS in the bottom of the chamber were fixed with 100% MeOH, followed by staining with Wright stain. Upon completion of the staining, the migrated cells were counted under microscope.

[6] = system: human liver cancer cell line (Hep3B); assay: Inhibition of cancer cell proliferation (WST-8 cell survival), Hep3B; conditions: 48 hours culture with compound, WST-8, OD450
Procedure: as §1, §2

Row | Compound | IC50 [1] | IC50 [2] | IC50 [3] | IC50 [4] | ED100 indicating the concentration capable of inhibiting metastasis of human breast cancer cell line by 100% [5] | IC50 [6]
1 | C[C@H]1CC[C@H]2[C@@H](C=C[C@@H]3[C@H]4[C@@H](C)O[C@]5(O)[C@@H](CO)N(C)C(=O)[C@]45C(=O)[C@@]32C)C1 [compound 1, fusarisetin A] | 67.5 µg/mL (≈ 173 µM) | 69.5 µg/mL (≈ 178 µM) | 61.3 µg/mL (≈ 157 µM) | 57.7 µg/mL (≈ 148 µM) | 10 µg/mL | 34.7 µg/mL (≈ 89.1 µM)
2 | C[C@H]1CC[C@H]2[C@@H](C=C[C@@H]3[C@H]4[C@H](C)O[C@]5(O)[C@@H](CO)N(C)C(=O)[C@]45C(=O)[C@@]32C)C1 [compound 2, fusarisetin B] | 62.2 µg/mL (≈ 160 µM) | 76.5 µg/mL (≈ 196 µM) | 49.3 µg/mL (≈ 127 µM) | 29.4 µg/mL (≈ 75.5 µM) | 10 µg/mL | 27.2 µg/mL (≈ 69.8 µM)
